Laboratory results taken from the NIST ThermoML archive (doi:10.1021/je034107o).
± gives the expanded uncertainty stated by the source.

Conditions: Liquid

| vapor or sublimation pressure (498.15 K) | vapor or sublimation pressure (523.15 K) | vapor or sublimation pressure (553.15 K) | vapor or sublimation pressure (583.15 K) | vapor or sublimation pressure (613.15 K) | vapor or sublimation pressure (638.15 K) | vapor or sublimation pressure (653.15 K) | SMILES |
| --- | --- | --- | --- | --- | --- | --- | --- |
| 681 ± 37 kPa | 1027 ± 54 kPa | 1601 ± 83 kPa | 2387 ± 120 kPa | 3451 ± 180 kPa | – | – | CCc1ccccc1 [ethylbenzene] |
| – | 135 ± 8 kPa | 245 ± 13 kPa | 416 ± 22 kPa | 668 ± 35 kPa | 955 ± 49 kPa | 1166 ± 60 kPa | c1ccc2ncccc2c1 [quinoline] |
